Measured values from patent US10982252B2, “Bacterial systems for analyzing ubiquitylated polypeptides” (Technology Innovation Momentum Fund (Israel) Limited …, priority 2016, dated 2021).
Each block holds one molecule with its values, some of them ahead of it.

Tests used:
[1] = target: T1, E1 (Triticum aestivum, UniProt P20973); test: Selection experiments in solution growth media (96-well, TRIM with or without Pyr-41), Hrs dsUIM ubiquitination; format: cell-based; conditions: 100 μM Pyr-41, with or without TRIM, n=9; FIG. 3D
T1 construct: expressed in transfected cells; host or cells: E. coli
T1 sequence (P20973 1-1051): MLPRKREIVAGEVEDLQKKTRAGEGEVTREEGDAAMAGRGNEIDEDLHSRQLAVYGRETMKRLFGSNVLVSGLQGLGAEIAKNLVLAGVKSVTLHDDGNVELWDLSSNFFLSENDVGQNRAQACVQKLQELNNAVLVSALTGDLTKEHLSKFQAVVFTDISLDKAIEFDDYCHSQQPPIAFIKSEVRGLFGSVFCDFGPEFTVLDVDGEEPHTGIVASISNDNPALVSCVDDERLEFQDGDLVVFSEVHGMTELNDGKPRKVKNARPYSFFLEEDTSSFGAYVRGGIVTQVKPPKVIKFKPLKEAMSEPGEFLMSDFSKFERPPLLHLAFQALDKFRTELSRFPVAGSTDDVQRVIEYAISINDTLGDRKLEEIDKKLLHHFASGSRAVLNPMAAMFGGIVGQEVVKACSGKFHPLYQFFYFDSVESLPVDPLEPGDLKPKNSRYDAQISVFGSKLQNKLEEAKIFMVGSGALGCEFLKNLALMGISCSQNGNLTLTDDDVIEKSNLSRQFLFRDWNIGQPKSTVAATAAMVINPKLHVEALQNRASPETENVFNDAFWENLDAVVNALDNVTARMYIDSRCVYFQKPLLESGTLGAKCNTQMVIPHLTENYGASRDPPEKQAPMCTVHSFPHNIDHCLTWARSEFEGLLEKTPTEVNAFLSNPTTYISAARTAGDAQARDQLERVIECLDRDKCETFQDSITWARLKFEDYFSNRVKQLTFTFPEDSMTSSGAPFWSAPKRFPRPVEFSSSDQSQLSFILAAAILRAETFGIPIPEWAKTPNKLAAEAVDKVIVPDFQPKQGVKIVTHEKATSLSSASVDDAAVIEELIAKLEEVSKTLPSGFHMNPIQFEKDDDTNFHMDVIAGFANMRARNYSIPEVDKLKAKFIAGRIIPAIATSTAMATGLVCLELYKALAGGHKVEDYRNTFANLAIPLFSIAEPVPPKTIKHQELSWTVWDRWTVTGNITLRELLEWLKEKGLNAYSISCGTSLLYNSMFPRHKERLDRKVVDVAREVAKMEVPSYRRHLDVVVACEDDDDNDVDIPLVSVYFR
Experimental: Selection experiments in solution growth media: Overnight cultures in LB medium (supplemented with 30 μg/ml kanamycin and 25 μg/ml streptomycin) were harvested and re-suspended in Davis minimal medium. Diluted cells (OD600, 0.2) were grown at 30° C. in 96-well plates containing 0.2 ml Davis medium supplemented with 0, 1, 5, 7, 10 and 12 μg/ml TRIM and with or without 100 μM Pyr-41. Growth rates were monitored by measuring the optical density (OD595) using a microplate spectrophotometer. Doubling time was calculated for early logarithmic growth (OD595 between 0.02 and 0.2). All experiments were performed at least 9 times (n=9).
The selection system stabilizes the dynamic and weak UBD:Ub non-covalent interactions by forming a covalent bond between Ub and Ub-receptor (i.e. ubiquitination) in the bacteria. The present inventors assessed the ability of the system to sense low affinity UBD by tethering the double-sided UIM (dsUIM) of Hrs as substrate^27,28 (FIG. 3A). The structures of Hrs:STAM (also known as ESCRT-0 complex) and particularly its dsUIM:Ub complex, were determined and facilitated detailed molecular assessment^29,30. The E3-independent self-ubiquitination of most Ub-receptors and the promiscuous function of Ubc4/5 subfamily members aided in the analysis. […] Similarly, I44-patch mutant abolished bacterial growth.

[2] = target: T2, Siah2 (Homo sapiens, UniProt O43255); test: Ubiquitination-dependent E. coli growth assay, bacteria addicted to Siah2 self-ubiquitination; format: cell-based; conditions: only under the addictive conditions (selective media, TRIM); FIG. 2B right
T2 construct: expressed in transfected cells; host or cells: E. coli W3110
T2 sequence (O43255 1-324): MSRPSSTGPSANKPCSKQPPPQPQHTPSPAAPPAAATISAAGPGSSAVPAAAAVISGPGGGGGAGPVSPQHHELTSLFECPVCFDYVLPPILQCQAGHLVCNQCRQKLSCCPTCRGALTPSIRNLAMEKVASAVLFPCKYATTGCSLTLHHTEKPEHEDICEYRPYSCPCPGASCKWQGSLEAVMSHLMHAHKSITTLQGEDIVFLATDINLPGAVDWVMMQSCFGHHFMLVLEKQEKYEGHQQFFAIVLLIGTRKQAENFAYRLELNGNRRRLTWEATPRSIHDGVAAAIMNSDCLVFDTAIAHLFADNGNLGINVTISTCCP
Experimental: Ubiquitination-dependent E. coli growth assay: E. coliW3110 (from Ezra Yagil laboratory at TAU) were co-transformed with the pND-Ub and the pCD-Sub plasmids and plated on LB agar supplemented with 34 μg/ml kanamycin and 25 μg/ml streptomycin. 5 ml of liquid LB medium supplemented with the same antibiotic concentrations were inoculated with a single colony and left to grow overnight at 37° C. The culture was harvested and washed twice with 5 ml of minimal Davis medium. The optical density (OD600.) was measured and adjusted to 0.2. Two and a half microliters of the diluted cultures from each sample were spotted on agar Davis plates containing 0, 0.5, 5, 10, 20 or 50 μg/ml of TRIM. The plates were incubated for 2-3 days at 30° C. and photographed with a UV camera in identical conditions. Each spotting assay was repeated at least 6 times.
Most E3-ligases undergo self-ubiquitination^20. The developed selection system thus provides a straightforward tool for their identification and characterization as self-ubiquitination is predicted to confer antibiotic resistance. Yeast Rsp5 and human Siah2, representatives of the HECT and the RING ligases, respectively, were fused to cDHFR. Growth phenotypes were observed under non-permissive conditions, only when all the required ubiquitination components were co-expressed (FIGS. 2A-B). […]

[3] = system: Ub; test: Surface plasmon resonance, immobilized Sc_ENTH and free mono-Ub; format: binding; conditions: mutant complexes; Ub concentrations too low for accurate Kd, high standard errors
Experimental: Surface plasmon resonance: Purified His6-MBP-ENTH or mutants were immobilized on an Ni^+2 chip at a density of ˜800U. Untagged Ub (analyte) was injected at a flow rate of […] in 150 mM NaCl, 10 mM HEPES pH 7.0 and 0.010% poly-sorbate 20 at 24° C.; 500 mM imidazole was used for surface regeneration. To avoid immobilization of aggregated analyte the purified Ub was chromatographed by gel filtration and briefly sonicated immediately before SPR experiments. Data were processed with BioEvaluation and fitting carried out as a single-site-binding model with OriginLab. Standard errors derived from at least three samples.
Finally, to biophysically corroborate the data and to quantify the affinity of the ENTH:Ub complex, Surface Plasmon Resonance (SPR) measurements were performed with immobilized Sc_ENTH and free mono-Ub (FIG. 5I). […] Together, the correlation between the SPR measurements, the genetic and biochemical data provides a rough estimation for the sensitivity of the selection system in monitoring Ub binding.

[4] = target: Ub (Homo sapiens, UniProt P0CG47); conditions: reference 26; read-out: affinity of VHS:Ub complex; cited from earlier work

Molecule: CCOC(=O)c1ccc(N2NC(=O)/C(=C/c3ccc([N+](=O)[O-])o3)C2=O)cc1 [PYR41]
effect on bacterial growth (relative growth rates at log phase) [1]: attenuates bacterial growth only in the non-permissive conditions

growth phenotype in the presence of menadione [2]: growth arrest phenotype
Molecule: CC1=CC(=O)c2ccccc2C1=O [menadione]

Molecule: Ub R42E, R72E: R42E, R72E double mutant of ubiquitin
estimated affinity, fold lower than that of the wild-type [3]: 2.6 fold

B1: Vps27: VHS domain of Vps27 in VHS:Ub complex (protein)
chain: IHSVDLSDEEKDSIYMFASLVEKMKSRPLNEILEDSKLQNLAQRVFASKARLNYALNDKAQKYNTLIEMNGKISEIMNIYDRLLEQQLQSINLSQQMEKKITGYTTVDISQWHRKEHFEAFQSVAQ
modifications: left off: small tags and cut ends
notes: VHS domain of Vps27 in VHS:Ub complex
Kd [4]: 1500 µM
